From US20070087975A1, “Compound useful for the prevention and treatment of left ventricular hypertrophy in dialysed patients” (SIGMA-TAU INDUSTRIE FARMACEUTICHE RIUNITE SPA, priority 2005, published 2007)

Key:
[1] = system: left ventricular (LV) function; conditions: 58 patients with primary glomerulonephritis and moderate chronic renal failure; cited from earlier work
[2] = system: left ventricular hypertrophy (LVH) in ESRD dialysed patients; assay: Clinical trial of propionyl L-carnitine in ESRD patients on dialysis (multicentre, randomized, double-blind, placebo-controlled, echocardiography); format: in vivo, human; conditions: 26 weeks
Experimental: A clinical trial (multicentre, parallel, randomized, double-blind, dose- ranging placebo-controlled study in 300 patients) useful for evaluating both preventive and/or curative effect of the treatment with propionyl L-carnitine (3 and 6 mg/kg given intravenously three times a week at the end of the hemodyalisis session for 26 weeks) has been done.
1) male or female out-patients aged >18 years, suffering from ESRD on bicarbonate dialysis three times a week;
2) patients who have reached a certain degree of dialytic stability (at least since six months on dialysis), so that the variability due to the progressive patient adaptation of the therapeutic treatment is controlled, presenting no clinical signs of hydric overload at the end of dialysis;
3) patients showing a degree of cardiac deterioration defined as inter-ventricular septum and left ventricular wall thickness ≧11 mm;
4) patients with left ventricular ejection fraction >40%;
During the whole Randomised Treatment Period, all drugs considered indispensable for the treatment of the disease under study could be administrated providing that they were administered for at least three months prior to patient's enrollment, and that the dosage of those drugs remained stable throughout the whole treatment period. […]

[3] = system: decompensated eccentric hypertrophy produced by myocardial infarction; conditions: rats without renal damages; similar to ACE inhibition; cited from earlier work

Compound	LV ejection fraction, early and late transmitral flow velocities and early to late LV inflow velocities ratio [1]	effect on the signs of LVH, signs (a)-(c): septum and posterior wall thickness, end-systolic and end-diastolic LV size and volume, LV ejection fraction ([2]; 3 and 6 mg/kg i.v. three times a week at end of hemodialysis session, preliminary ANOVA analysis)	progression of the signs of LVH, points (a)-(c), in the treated group respect to its base line ([2]; T26 vs T0, 3 and 6 mg/kg i.v. three times a week, control group signs worsened)	magnitude of decompensated eccentric hypertrophy produced by myocardial infarction [3]
C[C@H](CS)C(=O)N1CCC[C@H]1C(=O)O [captopril]	not significantly affected	–	–	–
CCOC(=O)[C@H](CCc1ccccc1)N[C@@H](C)C(=O)N1CCC[C@H]1C(=O)O [enalapril]	not significantly affected	–	–	–
CCC(=O)O[C@H](CC(=O)[O-])C[N+](C)(C)C [propionyl L-carnitine]	–	useful for treating the signs of LVH	able to reduce the progression of the signs of LVH	reduces the magnitude of decompensated eccentric hypertrophy
